Experimental data published in patent US20260199263A1, “Composition For The Modified Release Of Biological Polyamines, In Particular Spermidine” (GIULIANI S.P.A., priority 2022, published 2026).
Converted amounts (≈) assume the structure as drawn. Like-named read-outs stand apart in the source and are kept apart here.

Experiments:
[1] = Solubility evaluation of PEA and SPE in water and ethanol with emulsifiers (tests A-H); format: physicochemical; conditions: for solubility: thermodynamic from solid; for dissolution behaviour in test H: test H: 50 mg PEA + 50 mg SUC in 95% vol EtOH (about 2.5 g), then 500 mg water, then 50 mg SPE
Experimental: First of all, an evaluation of the solubility of PEA and SPE in water and ethanol was carried out in the presence of two different concentrations of the two emulsifiers.
In both test C and test D, water was added initially up to 1 ml, then to 2 ml and finally to 5 ml.
In test H, 50 mg of PEA (crushed in the mortar because it was initially in the form of flakes) was placed in a 10 ml test tube and 50 mg of SUC were added.
300 mg of water were then added. At the time of addition, cloudiness was observed, but when heated it returned to being a clear solution again. Another 200 mg of water were then added, and the same behavior was observed. This time, it was necessary to heat for a longer time to obtain a clear solution again.
1) PEA was initially present in the form of flakes. It was reduced in size in the mortar before testing.
2) Emulsifiers were added to PEA before adding solvents.

[2] = data known from the literature, cited from earlier work

Compound | solubility ([1]; ethanol, organic solvent or mixture, test G: 32 mg PEA, EtOH q.s. to 2 g, read-out: solubility of PEA in ethanol) [mg/mL] | solubility of PEA in water ([1]; test B: 50 mg PEA, H2O q.s. to 1 g) | solubility of PEA in water with emulsifier MGE ([1]; test C: PEA/MGE=10:1 w/w, H2O up to 5 ml) | solubility of PEA in water with emulsifier SUC ([1]; test D: PEA/SUC=10:1 w/w, H2O up to 5 ml) | solubility of PEA in water with emulsifier MGE ([1]; test E: PEA/MGE 1:1 w/w) | solubility of PEA in water with emulsifier SUC ([1]; test F: PEA/SUC 1:1 w/w) | dissolution behaviour in test H ([1]; heated) | Hot solubility ([1]; tests C and D, PEA in water with emulsifier 10:1 w/w, heated) | solubility in ethanol [2] [mg/mL] | solubility in water ([2]; in words) | solubility ([1]; water, test A: 50 mg SPE, H2O q.s. to 1 g, read-out: solubility of SPE in water) [mg/mL] | solubility in water [2] [mg/mL]
CCCCCCCCCCCCCCCC(=O)NCCO [PEA, N-(2-hydroxyethyl)hexadecanamide] | 16 (≈ 53.4 mM) | insolubility | does not seem to improve the solubility | does not seem to improve the solubility | comparable to test C | appears to increase slightly, but not sufficiently | perfectly clear solution | does not appear to have significant improvements | 16 (≈ 53.4 mM) | insoluble | – | –
NCCCCNCCCN [SPE, N-(3-aminopropyl)butane-1,4-diamine·3HCl] | – | – | – | – | – | – | dissolved immediately | – | – | – | 50 | 50
